Measured values published in article PMC12287261 (Scientific Reports, 2025).

Tested on: CamASNase
Experiment: initial rates at varied L-asparagine, Lineweaver-Burk
Type: biochemical, Chryseomicrobium amylolyticum
Conditions: pH 7.4, 37 °C; L-asparagine 1 to 80 µM

- Km: 6.36 µM
SMILES: NC(=O)C[C@H](N)C(=O)O [L-asparagine]
